“Also recorded” adds a separate entry of the source.
Legend:
EAU [1] = test: EAU in Cx3cr1CreER x B6-iDTR mice given tamoxifen alone; type: in vivo; settings: day 21; for clinical EAU score: tamoxifen alone, systemically via i.p. injection
EAU [2] = test: Active immunization EAU, clinical and histopathological score; type: in vivo, C57BL/6 mice
IRBP-p = test: Delayed hypersensitivity (ear swelling) against IRBP-p; type: in vivo, C57BL/6 mice; settings: IRBP-immunized animals, day 21
Procedure: Ag-specific delayed hypersensitivity (DH) was measure as previously described. On day 19 after immunization, mice were injected intradermally with 10 μg/10 μl of IRBP-p suspended in PBS into the pinna of one ear. Ear swelling was measured after 24 and 48 h using a micrometer (Mitutoyo, Tokyo, Japan). DH was measured as the difference in ear thickness before and after challenge. Results were expressed as: specific ear swelling=(24-h measurement−0-h measurement) for test ear−(24-h measurement−0-h measurement) for control ear.

[3] = Lymph node and spleen weight in EAU; type: in vivo, C57BL/6 mice; settings: day 21
retinal microglia = test: Retinal microglia depletion by chow containing CSF1R inhibitor; type: in vivo; settings: inhibitor-treated mice
Description: The images of whole mount retinas were taken by a confocal microscopy (SP5 or SP8; Leica, Buffalo Grove, Ill., USA) or an epifluorescent microscopy (Axio Observer Z1; Carl Zeiss, Bayern, Germany). For microglial cell number counting, microglial cell bodies were manually counted based on the z-stack images. For microglial density evaluation, maximum intensity z-stack images were created and the images were processed with the smooth, the make binary, and the watershed tools. The area of particles was then calculated using the analyze particles tool, setting the size range to 5-1000. Amira 5 software (FEI, Hillsboro, Oreg., USA) was used to make 3D-reconstruction images.
Microglia depletion was performed using Cx3cr1^CreER×B6-iDTR (TG) mice or chow containing a small molecule CSFR1 inhibitor (Plexxikon Inc, Berkely, Calif., USA). To generate TG mice, Cx3cr1^CreER mice, which express Cre-ER fusion protein from endogenous CX3CR1 promoter enhance elements, were crossed with B6-iDTR mice, which contain a flox-STOP-flox diphtheria toxin receptor (DTR) in the ROSA26 locus. In this TG mice system, the Cre recombinase activation under the control of the Cx3cr1 promoter can be induced by tamoxifen, which leads to the surface expression of DTR on CX3CR1-expressing cells. […]

VCAM-1 = test: Western blot of retinal VCAM-1; type: in vivo, mice; settings: EAU day 14
Procedure: (§1) Whole retinas were homogenized with a hand homogenizer and briefly sonicated in M-PER® Mammalian Protein Extract Reagent containing Halt Phosphatase Inhibitor Cocktail (both Thermo Scientific), and then ultracentifuged for 15 min at 17,000 g to collect soluble proteins as supernatants. 20 μg of the samples were electrophoresed through 4-15% polyacrylamide gels (Bio-Rad, Hercules, Calif., USA), and transferred onto PVDF membranes. After blocking with 5% nonfat dried milk, the membranes were incubated overnight with a primary antibody at 4° C. The membranes were then incubated for 1 hour at room temperature with a HRP-labeled secondary antibody. The following antibodies were used: rabbit anti-ICAM1 (179707, abcam), rabbit anti-VCAM1 (134047, abcam), and rabbit anti-β-actin (4970; Cell Signaling Technology). Immunoreactive bands were visualized by ECL. The images were taken by ChemiDoc MP (Bio-Rad) and analyzed using Image Lab 4.6 (Bio-Rad).

EAU [4] = test: Adoptive transfer EAU; type: in vivo, mice
Procedure: Adoptive transfer EAU was induced as previously described with brief modification. Briefly, donor mice were immunized as described above and the spleens and draining lymph nodes (LNs) were collected on day 14 post-immunization. Lymphocytes from spleens and draining LNs were culture in the presence of 10 μg/ml IRBP-p and 10 ng/ml IL-23 (R&D systems, Minneapolis, Minn.) for 72 hours in RPMI 1640 supplemented with 10% FBS (Gibco), 2 mM glutamine (Gibco), and 100 U/ml penicillin and 100 μg/ml streptomycin. The non-adherent cells in the entire suspension were transferred to new dishes on day one and two of culture. After 3 days, the activated lymphocytes were purified by gradient centrifugation on Histopaque 1083 and counted. The cells were injected i.p. in 0.2 ml of PBS into […] (5×10^7 cells/mouse). Fundus were observed using Micron IV (Phoenix, Pleasanton, Calif.) and clinical score was graded on a scale between 0-4 in half-point increments as described previously. For histological assessment, enucleated eyes were fixed in a buffer of 70% methanol and 30% acetic acid. The fixed tissues were embedded in paraffin and processed. Sections of 5 μm were cut and stained with H&E. The severity of EAU in each eye was scored on a scale between 0-4 in half-point increments, according to a semiquantitative system described previously.

[5] = tested on: lymph node and spleen cells; test: Lymphocyte proliferation assay (modified MTT) of lymph node and spleen cells; type: cell-based, C57BL/6 mice; settings: IRBP-immunized animals, lymph nodes and spleens, day 14 and 21
Procedure: The draining LN and spleens were collected and the cells were suspended at 2×10^5 per 200 μL medium in 96-well flat-bottom plates. Triplicated cells were cultured in the presence of 10 μg/mL IRBP-p, 1 μg/mL Concanavalin A (Con A; Sigma-Aldrich), or medium alone. After incubation for three days, 100 μl of supernatant in the culture medium was collected. Cell proliferation during the last 4 hours of 72 hours cultures was measured by modified MTT assay using Cell Counting Kit-8 (Sigma-Aldrich).

[6] = Behavior and health observation on supplemented diet; type: in vivo, mice; settings: chow containing 1200 p.p.m
Procedure: Microglia depletion was performed using Cx3cr1^CreER×B6-iDTR (TG) mice or chow containing a small molecule CSFR1 inhibitor (Plexxikon Inc, Berkely, Calif., USA). To generate TG mice, Cx3cr1^CreER mice, which express Cre-ER fusion protein from endogenous CX3CR1 promoter enhance elements, were crossed with B6-iDTR mice, which contain a flox-STOP-flox diphtheria toxin receptor (DTR) in the ROSA26 locus. In this TG mice system, the Cre recombinase activation under the control of the Cx3cr1 promoter can be induced by tamoxifen, which leads to the surface expression of DTR on CX3CR1-expressing cells. The activation of Cre recombinase was induced by 5 consecutive days of tamoxifen administration via eye drops (10 μl/drop of 5 mg/ml in corn oil) three times a day at 6 weeks old. Then diphtheria toxin (DTX) (Sigma-Aldrich) was administered into the anterior chamber (a.c.) (25 ng in 1 μl of saline) to deplete CX3CR1-expressing. The control mice were given saline (a.c.). For microglia depletion using a small molecule CSFR1 inhibitor, mice were fed the control chow (AIN-76) or the chow containing 1200 p.p.m of the CSF1R inhibitor PLX 5622 one week prior to RD creation.

LN cells and SP cells = test: Flow cytometric analysis of lymph nodes and spleens; type: in vivo, mice
Description: Cervical, axillary, and inguinal lymph nodes (LNs) were harvested from naive mice and EAU mice fed with a small molecule CSFR1 inhibitor or control diet. Single cell suspensions (1×10^6 cells/sample) were blocked with anti-mouse CD16/32 mAb (eBioscience, San Diego, Calif.) and stained with cell surface antibodies. Dead cells were stained with LIVE/DEAD™ fixable dead cell stain kit (blue or violet) (ThermoFisher). The following anti-mouse antibodies were used for staining: CD4-FITC (clone: GK1.5), CD25-PE (PC61.5), Foxp3-PE-Cy7 (FJK-6s), CD11c-FITC (N418), CD11b-PE (M1/70), CD45-APC (30-F11), IFN-γ-PE (XMG1.2), and IL-17A-APC (eBio17B7) (All purchased from eBioscience). CD3-Pacific blue (17A2) was purchase from BioLegend (San Diego, Calif.). For CD45/CD11b/CD11c detection, the cells were subjected for analysis without fixation. For regulatory T cell (CD3/CD4/CD25/Foxp3) staining, after staining with the cell surface markers, the cells were fixed and permeabilized with the Foxp3 staining buffer kit (eBioscience) and stained with Foxp3-PE-Cy7. For Th1 and Th17 detection (CD3/CD4/IFN-γ/IL-17), single cell suspensions were stimulated for 4 hours with 50 ng/mL phorbal myristate acetate (PMA) and 500 ng/ml ionomysin in culture media (10% FBS, RPMI1640, penicillin, streptomycin, β-mercaptoethanol) in the presence of GolgiPlug™ (BD Biosciences). The cells were stained with CD3-PB, CD4-FITC, and Live/Dead blue then fixed and permeabilized using an intracellular fixation and permeabilization buffer set (eBioscience). The cells were next stained with IFN-γ-PE and IL-17-APC. Flow cytometric data were acquired on a LSR II (BD Biosciences). Acquired data was analyzed using FlowJo 10.1 ( ).

[7] = tested on: adherent retinal leukocytes; test: Lectin labeling of adherent retinal leukocytes; type: in vivo, mice; settings: EAU day 10
Procedure: The retinal vasculature and adherent leukocytes were imaged by perfusion labeling with fluorescein-isothiocyanate (FITC)-conjugated concanavalin A lectin (conA; Vector Laboratories, Burlingame, Calif.), as described previously with modifications. Briefly, after deep anesthesia, the chest cavity was opened and a 27-gauge cannula was introduced into the left ventricle. The mice were perfused through the left ventricle first using 5 ml of PBS, followed by fixation with 1% paraformaldehyde (5 ml), FITC-conjugated conA (20 μg/ml in PBS, 5 mL), and 5 ml of PBS. The eyes were then fixed in 4% PFA for 15 mins and the retinas were flatmounted. The total number of conA stained adherent leukocytes in the major retinal vessels (venules, arterioles, and collecting vessels) were counted under the direct observation with an epifluorescent microscopy (Axio Observer Z1; Carl Zeiss, Bayern, Germany).

ICAM-1 = test: Western blot of retinal ICAM-1; type: in vivo, mice; settings: EAU day 10; P<0.01
Procedure: as §1

[8] = tested on: circulating systemic immune cells; settings: previous studies [31, 32]; cited from earlier work

Compound: CC/C(=C(\c1ccccc1)c1ccc(OCCN(C)C)cc1)c1ccccc1 [tamoxifen]
- clinical EAU score (EAU [1]): significantly suppressed
- clinical EAU score (EAU [1]; listed as Tamoxifen): suppresses EAU
- EAU severity (clinical EAU score) (EAU [1]; tamoxifen topical via eye drops): did not significantly affect

Compound: COc1ncc(F)cc1CNc1ccc(Cc2c[nH]c3ncc(C)cc23)c(F)n1 [a small molecule CSFR1 inhibitor]
- clinical EAU score (development of EAU) (EAU [2]; diet 1200 ppm started day -7, through day 21, p<0.001): suppresses EAU; also recorded: completely suppressed
- clinical EAU score (EAU [2]; diet started day 0, until 28 days after EAU induction): effectively suppressed
- clinical EAU score (EAU [2]; diet started day 7): partially suppressed
- severity of EAU (clinical score) (EAU [2]; diet started day 14): comparable to that of control mice
- animals developing EAU (EAU [2]; diet started day -7, by day 28, mild EAU, n=7): Only one animal
- histological score (EAU [2]; diet started day -7, day 21, p<0.01): suppressed EAU induction
- delayed hypersensitivity (DH) response, ear swelling (IRBP-p): did not affect
- lymph node (LN) weight [3]: does not change; also recorded: neither parameter was affected
- spleen weight [3]: does not change; also recorded: neither parameter was affected
- degree of microglia depletion (retinal microglia): 100%
- retinal VCAM-1 expression (VCAM-1): unaffected
- severity of EAU in recipients (uveitogenicity of donor lymphocytes) (EAU [4]; inhibitor given to donor mice 7 days prior to EAU induction, recipients on regular diet): did not affect the severity of EAU; also recorded: does not significantly suppress
- EAU response (clinical and histopathological score) (EAU [4]; inhibitor given to recipient mice 7 days prior to cell transfer): suppressed; also recorded: suppresses EAU
- lymphocyte proliferation [5]: did not affect
- behavioral or health problems [6]: No obvious behavioral or health problems
- frequency of CD3+CD4+ T cells positive for IFN-γ+ or IL-17+ (LN cells and SP cells; LNs and spleens, day 14): does not suppress; also recorded: did not significantly change
- frequency of regulatory T cells (CD4+CD25+Foxp3+) (LN cells and SP cells; LNs and spleens, day 14): did not increase
- CD11c+CD11b+ cells (LN cells and SP cells; both LNs and splenic cells, day 14 of EAU, vs control-fed): suppresses; also recorded: decreased
- levels of adherent cells vs naïve mice [7]: similar
- number of adherent cells vs control EAU mice [7]: significantly fewer
- retinal ICAM-1 protein expression vs naïve retina (ICAM-1): significantly higher
- effect on circulating systemic immune cells [8]: minimal effect

— patent US20210046002A1, “AMELIORATION OF AUTOIMMUNE UVEITIS THROUGH BLOCKADE OF CSF1R” (Massachusetts Eye and Ear Infirmary, priority 2018, published 2021)
